These results are taken from US20170271704A1, “MITIGATION OF CROSSOVER WITHIN FLOW BATTERIES” (LOCKHEED MARTIN ADVANCED ENERGY STORAGE,LLC, priority 2016, published 2017).

The conditions of series [1]: in water; active material for positive half-cell of a flow battery; cited from earlier work.
Series [2] in a line: Aqueous solubility (Table 1 comparison of positive half-cell active materials). The settings on record: effective concentration of transferrable electrons (solubility x electrons transferred).

For Fe(CN)6^3−^/4−, the Aqueous Solubility (as a rule, the concentration that dissolves in the medium under given conditions) in series [1] was 1300 to 1600 mM. The “Electron Aqueous Solubility” value in series [2] fell in the range of 1300 to 1600 mM.
